ChEMBL document CHEMBL3885861, “Open TG-GATES”

Species: Rattus norvegicus
Test: Open TG-GATES - Regimen: Single
Assay type: toxicity, organism-based, Sprague-Dawley
Set-up: regimen Single, gender Male, age 6 weeks
Conditions: in vivo, po, route gavage; for APTT / Bas / Eos / Fbg / Hb / Ht / Lym / MCHC / MCV / Mono / Neu / PT / Plat / RBC / Ret / WBC: tissue Blood; for KIDNEY_L / KIDNEY_R / KIDNEY_TOTAL: tissue Kidney; for LIVER: tissue Liver
[1] = 100 mg/kg, 3 h, tissue Plasma, dose level Low
[2] = 100 mg/kg, 6 h, tissue Plasma, dose level Low
[3] = 100 mg/kg, 9 h, tissue Plasma, dose level Low
[4] = 100 mg/kg, 24 h, dose level Low
[5] = 100 mg/kg, 24 h, tissue Plasma, dose level Low
[6] = 300 mg/kg, 3 h, dose level Middle

SMILES: CN(C)C(=N)N=C(N)N [METFORMIN]
- APTT (100 mg/kg, 3 h, dose level Low): 16 s
- Bas (100 mg/kg, 3 h, dose level Low): 0%
- Eos (100 mg/kg, 3 h, dose level Low): 0.8%
- Fbg (100 mg/kg, 3 h, dose level Low): 241.8 mg/dL
- Hb (100 mg/kg, 3 h, dose level Low): 13.2 g/dL
- Ht (100 mg/kg, 3 h, dose level Low): 39.9%
- Lym (100 mg/kg, 3 h, dose level Low): 77.2%
- MCHC (100 mg/kg, 3 h, dose level Low): 33.1%
- MCV (100 mg/kg, 3 h, dose level Low): 65.8 fL
- Mono (100 mg/kg, 3 h, dose level Low): 3.4%
- Neu (100 mg/kg, 3 h, dose level Low): 18.2%
- PT (100 mg/kg, 3 h, dose level Low): 12.3 s
- Plat (100 mg/kg, 3 h, dose level Low): 118.9 x10_4/uL
- RBC (100 mg/kg, 3 h, dose level Low): 607.2 x10_4/ul
- Ret (100 mg/kg, 3 h, dose level Low): 10%
- WBC (100 mg/kg, 3 h, dose level Low): 81.3 x10_2/uL
- KIDNEY_L (100 mg/kg, 3 h, dose level Low): 0.9 g
- KIDNEY_R (100 mg/kg, 3 h, dose level Low): 0.8 g
- KIDNEY_TOTAL (100 mg/kg, 3 h, dose level Low): 1.7 g
- LIVER (100 mg/kg, 3 h, dose level Low): 8.3 g
- ALP [1]: 1250.2 IU/L
- AST [1]: 72.4 IU/L
- BUN [1]: 8.4 mg/dL
- CRE [1]: 0.2 mg/dL
- Ca [1]: 11.2 mg/dL
- Cl [1]: 105.2 meq/L
- DBIL [1]: 0.008 mg/dL
- GLC [1]: 168.4 mg/dL
- IP [1]: 8.7 mg/dL
- K [1]: 4.3 meq/L
- LDH [1]: 62.6 IU/L
- Na [1]: 139.4 meq/L
- PL [1]: 135.8 mg/dL
- RALB [1]: 2.5 g/dL
- TBIL [1]: 0.042 mg/dL
- TC [1]: 83.6 mg/dL
- TG [1]: 54.6 mg/dL
- TP [1]: 5.1 g/dL
- gamma-GTP [1]: 1.2 IU/L
- TERMINAL_BW (100 mg/kg, 6 h, dose level Low): 200.6 g
- APTT (100 mg/kg, 6 h, dose level Low): 16 s
- Bas (100 mg/kg, 6 h, dose level Low): 0%
- Eos (100 mg/kg, 6 h, dose level Low): 0.8%
- Fbg (100 mg/kg, 6 h, dose level Low): 249 mg/dL
- Hb (100 mg/kg, 6 h, dose level Low): 12.8 g/dL
- Ht (100 mg/kg, 6 h, dose level Low): 38.8%
- Lym (100 mg/kg, 6 h, dose level Low): 75.2%
- MCHC (100 mg/kg, 6 h, dose level Low): 33%
- MCV (100 mg/kg, 6 h, dose level Low): 63.6 fL
- Mono (100 mg/kg, 6 h, dose level Low): 3.4%
- Neu (100 mg/kg, 6 h, dose level Low): 19.6%
- PT (100 mg/kg, 6 h, dose level Low): 12.4 s
- Plat (100 mg/kg, 6 h, dose level Low): 125.3 x10_4/uL
- RBC (100 mg/kg, 6 h, dose level Low): 610.4 x10_4/ul
- Ret (100 mg/kg, 6 h, dose level Low): 9.8%
- WBC (100 mg/kg, 6 h, dose level Low): 95.4 x10_2/uL
- KIDNEY_L (100 mg/kg, 6 h, dose level Low): 0.9 g
- KIDNEY_R (100 mg/kg, 6 h, dose level Low): 0.9 g
- KIDNEY_TOTAL (100 mg/kg, 6 h, dose level Low): 1.7 g
- LIVER (100 mg/kg, 6 h, dose level Low): 7.8 g
- ALT [2]: 55.4 IU/L
- AST [2]: 84.6 IU/L
- BUN [2]: 8.2 mg/dL
- CRE [2]: 0.1 mg/dL
- Ca [2]: 10.8 mg/dL
- Cl [2]: 105.4 meq/L
- DBIL [2]: 0.008 mg/dL
- GLC [2]: 168.4 mg/dL
- IP [2]: 10.2 mg/dL
- K [2]: 4.2 meq/L
- LDH [2]: 71.8 IU/L
- Na [2]: 139.2 meq/L
- PL [2]: 124 mg/dL
- RALB [2]: 2.4 g/dL
- TBIL [2]: 0.046 mg/dL
- TG [2]: 26.8 mg/dL
- TP [2]: 5 g/dL
- gamma-GTP [2]: 1.2 IU/L
- TERMINAL_BW (100 mg/kg, 9 h, dose level Low): 201.1 g
- APTT (100 mg/kg, 9 h, dose level Low): 16.1 s
- Bas (100 mg/kg, 9 h, dose level Low): 0%
- Eos (100 mg/kg, 9 h, dose level Low): 1%
- Fbg (100 mg/kg, 9 h, dose level Low): 233.4 mg/dL
- Hb (100 mg/kg, 9 h, dose level Low): 13 g/dL
- Ht (100 mg/kg, 9 h, dose level Low): 38.8%
- Lym (100 mg/kg, 9 h, dose level Low): 75.2%
- MCHC (100 mg/kg, 9 h, dose level Low): 33.4%
- MCV (100 mg/kg, 9 h, dose level Low): 64 fL
- Mono (100 mg/kg, 9 h, dose level Low): 2.8%
- Neu (100 mg/kg, 9 h, dose level Low): 20.4%
- PT (100 mg/kg, 9 h, dose level Low): 12.6 s
- Plat (100 mg/kg, 9 h, dose level Low): 114.4 x10_4/uL
- RBC (100 mg/kg, 9 h, dose level Low): 607.4 x10_4/ul
- Ret (100 mg/kg, 9 h, dose level Low): 9%
- WBC (100 mg/kg, 9 h, dose level Low): 79.5 x10_2/uL
- KIDNEY_L (100 mg/kg, 9 h, dose level Low): 0.9 g
- KIDNEY_R (100 mg/kg, 9 h, dose level Low): 0.9 g
- KIDNEY_TOTAL (100 mg/kg, 9 h, dose level Low): 1.8 g
- LIVER (100 mg/kg, 9 h, dose level Low): 7.2 g
- ALP [3]: 1288.4 IU/L
- ALT [3]: 46.6 IU/L
- AST [3]: 75 IU/L
- BUN [3]: 9.8 mg/dL
- CRE [3]: 0.1 mg/dL
- Ca [3]: 10.7 mg/dL
- Cl [3]: 105.4 meq/L
- DBIL [3]: 0.01 mg/dL
- GLC [3]: 166.4 mg/dL
- IP [3]: 10.2 mg/dL
- K [3]: 4.2 meq/L
- LDH [3]: 49 IU/L
- Na [3]: 140 meq/L
- PL [3]: 118.4 mg/dL
- RALB [3]: 2.5 g/dL
- TBIL [3]: 0.044 mg/dL
- TG [3]: 30 mg/dL
- TP [3]: 5.1 g/dL
- gamma-GTP [3]: 1 IU/L
- TERMINAL_BW [4]: 208.9 g
- APTT [4]: 16.6 s
- Bas [4]: 0%
- Eos [4]: 1%
- Fbg [4]: 242.6 mg/dL
- Hb [4]: 13 g/dL
- Ht [4]: 38.6%
- Lym [4]: 75%
- MCHC [4]: 33.6%
- MCV [4]: 64.8 fL
- Mono [4]: 3.6%
- Neu [4]: 19.8%
- PT [4]: 12.4 s
- Plat [4]: 109.9 x10_4/uL
- RBC [4]: 596 x10_4/ul
- Ret [4]: 8.8%
- WBC [4]: 95.2 x10_2/uL
- KIDNEY_L [4]: 0.9 g
- KIDNEY_R [4]: 0.9 g
- KIDNEY_TOTAL [4]: 1.8 g
- LIVER [4]: 10.1 g
- ALP [5]: 1691 IU/L
- ALT [5]: 51.6 IU/L
- AST [5]: 80.8 IU/L
- BUN [5]: 14.6 mg/dL
- CRE [5]: 0.2 mg/dL
- Ca [5]: 11.3 mg/dL
- Cl [5]: 105.2 meq/L
- DBIL [5]: 0.016 mg/dL
- GLC [5]: 173.6 mg/dL
- IP [5]: 8.5 mg/dL
- K [5]: 3.9 meq/L
- LDH [5]: 81 IU/L
- Na [5]: 142.6 meq/L
- PL [5]: 140 mg/dL
- RALB [5]: 2.6 g/dL
- TBIL [5]: 0.034 mg/dL
- TG [5]: 99 mg/dL
- TP [5]: 5.5 g/dL
- gamma-GTP [5]: 1.2 IU/L
- TERMINAL_BW [6]: 201.8 g
- APTT [6]: 15.4 s
